Test results published in patent US11154519B2, “Inhibitors and their uses” (MEDICAL RESEARCH COUNCIL, priority 2015, dated 2021).

Tests used:
protein synthesis = assay: Assessment of translation rates (35S-methionine labelling); format: cell-based; conditions: for Effect on translation: 35S-methionine labelling of cells; for protein synthesis rates: unstressed cells, 10 μM, FIG. 12; for Effect on translation ⇒ Inhibits: target(s) concluded to be inhibited
Experimental: Cells (90,000 cells/ml) were plated in 12-well plates, treated as indicated, labelled with 100 μCi/mI 35S-methionine (Hartmann Analytic) for 10 minutes at 37° C., washed with ice-cold PBS and lysed in 120 μl Laemmli Buffer. Lysates were boiled at 95° C. for 5 minutes, sonicated and resolved on 4-12% Bolt Bis-Tris Plus Gels (Thermo Fisher Scientific). Gels were then stained with InstantBlue (Expedeon) and analyzed by phosphorimaging and quantified using ImageJ.
By monitoring translation rates as described above, the activities of R15A, R15B and R15A/B inhibitors can be defined as follows (also shown in FIG. 12). An R15A inhibitor has no effect on translation in unstressed cells but prolongs translation attenuation following stress. A selective R15B inhibitor transiently attenuate protein synthesis because R15A compensates for the inhibition of R15B.

eIF2α phosphorylation [1] = assay: Assay 5: eIF2α phosphorylation during stress-recovery (DTT wash out); format: cell-based; conditions: 30 minute 1 mM DTT and wash out, before R15A is expressed
Experimental: (§1) HeLa cells were cultured in Dulbecco's Modified Eagle's Media (DMEM) supplemented with penicillin, streptomycin, containing 5% and 10% fetal bovine serum (FBS), respectively. MEF cells were cultured in DMEM supplemented with penicillin, streptomycin, glutamine, 55 μM β-mercaptoethanol, 1× non-essential amino acids (Sigma-Adrich) and 10% FBS. Where indicated, cells were treated with 2.5 μg/ml tunicamycin, 1 mM DTT (Sigma-Adrich) and or the indicated compounds at the indicated concentrations.
(§2) For immunoblots, HeLa cells (80,000 cells/ml) were plated in 12-well plates 24 hours before each experiment. Immediately after the indicated treatments, cells were lysed in 75 μl Laemmli Buffer, boiled at 95° C. for 5 minutes and sonicated. Proteins were separated and analysed as described (Tsaytler et al., Science, 332, 91-94, 2011) with the following antibodies: phospho-elf2α [pS52] and PPP1R15A/GADD34 (10449-1-AP; ProteinTech Group, 1/1000 dilution) and ATF4 (Sc-200 Santa Cruz).
The inventors reasoned that a PPP1R15B inhibitor should prolong eIF2α phosphorylation following stress. […] The inventors took advantage of the fast kinetic and reversibility of stress induction by DTT (Bertolotti et al., Nat. Cell. Biol., 2, 326-332, 2000; Jousse et al., 2003) and monitored eIF2α phosphorylation in cells following a 30 minute treatment with 1 mM DTT and a wash out. […]

eIF2α phosphorylation [2] = assay: Assay 2: eIF2α phosphorylation in cells in the absence of stress; format: cell-based; conditions: human cells
Experimental: as §1, §2
Human cells were treated with a PPP1R15B inhibitor and eIF2α phosphorylation was monitored over time. […] This was manifested between 1 and 7.5 hours after addition of the compound of Example 1. […] Indeed, the inventors noticed that PPP1R15A was induced at the late time points following addition of the compound of Example 1 (see Assay 3). […] Furthermore, this establishes that the compound of Example 1 spares PPP1R15A. […]

PPP1R15A = assay: Assay 3: expression of PPP1R15A in cells; format: cell-based, human; conditions: late time points after addition, FIG. 2B
Experimental: as §2
Cells and organisms usually have mechanisms to compensate for deficiencies. The inventors therefore considered whether cells might compensate for PPP1R15B inhibition by inducing PPP1R15A. It has been previously reported that PPP1R15A levels are increased in the liver of PPP1R15B knock-out mice (Harding et al., Proc. Natl. Acad. Sci. U.S.A., 106, 1832-1837, 2009). It is unknown whether this compensatory response is specific to the liver or if it can happen in cells or other tissues. Furthermore, prior to this study, it was unknown whether PPP1R15A induction can be observed upon pharmacological inhibition of PPP1R15B, as they were no selective inhibitors of PPP1R15B prior to this study.

[3] = Tissue distribution in mice after oral gavage; format: in vivo; conditions: plasma, brain, spinal cord, pancreas, liver
HD-N171-82Q mice = assay: Huntington's disease mouse model, motor performance (rotarod); format: in vivo; conditions: 2 mg/kg oral daily, 4 weeks
Experimental: To assess the efficacy of a compound of Example 1 in ameliorating a disease phenotype, 28-day old transgenic mice or littermate control were orally administered daily with a compound of Example 1 (2 mg/kg) or vehicle for a duration of 4 weeks. Disease progression was evaluated by weighting the mice during the treatment and by assessing their motor performances after 4 weeks of treatment.
Eight weeks old HD-N171-82Q mice and their wild-type littermates were first habituated for 1 min on a static rotor and 1 min at constant speed (4 rpm). Habituation was repeated. The test session consisted of four trials with 15 min intervals in between. For each trial 5 mice were placed on an accelerating rotor (4 to 40 rpm) and the latency to fall was recorded, with a maximum limit for individual animal set at 300 s.
Increasing folding by inhibition of PPP1R15B has the potential to benefit a very broad range of human pathologies. To test this, the inventors looked at Huntington's disease (HD), a proteostasis disease caused by accumulation of a misfolded protein, mutant Huntingtin. […] As HD has no cure to date, the inventors tested whether HD could be prevented by PPP1R15B inhibition.

ATF4 = ATF4 immunoblot in cells; format: cell-based, human; conditions: 20 μM; 0, 2, 5, 7.5 h, FIG. 13
Experimental: as §2
Translation can be inhibited at many levels. To ensure that the R15A and B inhibitors are on-target, we monitor the levels of ATF4 in cells treated with compounds. A R15A/B inhibitor persistently induce eIF2α phosphorylation and eIF2α phosphorylation results in ATF4 translation. We show here that an A/B inhibitor indeed induces ATF4, confirming target engagement in cells.

Row | SMILES | Effect on translation (protein synthesis) | Effect on translation ⇒ Inhibits (protein synthesis) | also measured
1 | [H]/N=C(\N)NN=Cc1cccc(Cl)c1F [Compound 30, (E)-2-(3-chloro-2-fluorobenzylidene)hydrazine-1-carboximidamide] | No |  | 
2 | [H]/N=C(\N)NN=Cc1cccc(Cl)c1Cl [Compound 16, (E)-2-(2,3-dichlorobenzylidene)hydrazine-1-carboximidamide] | Transient |  | eIF2α phosphorylation following stress (eIF2α phosphorylation [1]): prolongs eIF2⊐ phosphorylation following stress; eIF2α phosphorylation (eIF2α phosphorylation [2]; 10 hours after addition): returned to basal levels; eIF2α phosphorylation (eIF2α phosphorylation [2]; between 1 and 7.5 hours after addition): induced eIF2α phosphorylation; expression of PPP1R15A in cells (PPP1R15A): induce PPP1R15A; protein synthesis rates (protein synthesis): transiently inhibits protein synthesis in unstressed cells; tissue distribution [3]: extensive tissue distribution; motor performances (HD-N171-82Q mice): prevented the motor performances impairment
3 | [H]/N=C(\N)NN=Cc1cccc(F)c1 [Compound 23, (E)-2-(3-fluorobenzylidene)hydrazine-1-carboximidamide] |  | R15AB | 
4 | [H]/N=C(\N)NN=Cc1ccccc1F [Compound 17, (E)-2-(2-fluorobenzylidene)hydrazine-1-carboximidamide] | (No) |  | 
5 | [H]/N=C(\N)NN=Cc1cccc(Cl)c1Br [Compound 9, (E)-2-(2-bromo-3-chlorobenzylidene)hydrazine-1-carboximidamide] |  | Off | 
6 | [H]/N=C(\N)NN=Cc1cc(Cl)cc(Cl)c1Cl [Compound 10, (E)-2-(2,3,5-trichlorobenzylidene)hydrazine-1-carboximidamide] | Persistent |  | expression of ATF4 (immunoblot) (ATF4): induces expression of ATF4; protein synthesis rates (protein synthesis): persistently inhibits protein synthesis
7 | [H]/N=C(\N)NN=Cc1ccc(Cl)nc1Cl [Compound 22, (E)-2-((2,6-dichloropyridin-3-yl)methylene)hydrazine-1-carboximidamide] |  | R15AB | 
8 | [H]/N=C(\N)NN=Cc1cc(F)cc(F)c1Cl [Compound 29, (E)-2-(2-chloro-3,5-difluorobenzylidene)hydrazine-1-carboximidamide] |  | R15AB | 
9 | [H]/N=C(\N)NN=Cc1ccc(Cl)c(F)c1Cl [Compound 13, (E)-2-(2,4-dichloro-3-fluorobenzylidene)hydrazine-1-carboximidamide] | Persistent | R15AB | 
10 | [H]/N=C(\N)NN=Cc1ccc(Cl)c(Cl)c1Cl [Compound 6, (E)-2-(2,3,4-trichlorobenzylidene)hydrazine-1-carboximidamide] | Persistent |  | 
11 | N=C(N)N/N=C/c1cc(Cl)c(Cl)c(Cl)c1 [Compound 3, (E)-2-(3,4,5-trichlorobenzylidene)hydrazine-1-carboximidamide] | Persistent |  | 
12 | [H]/N=C(\N)NN=Cc1ccc(Cl)c(F)c1 [Compound 8, (E)-2-(4-chloro-3-fluorobenzylidene)hydrazine-1-carboximidamide] |  | R15AB | 
13 | [H]/N=C(\N)NN=Cc1cc(Cl)ccc1Cl [Compound 26, (E)-2-(2,5-dichlorobenzylidene)hydrazine-1-carboximidamide] |  | R15AB | 
14 | [H]/N=C(\N)NN=Cc1c(Cl)ccc(Cl)c1Cl [Compound 31, (E)-2-(2,3,6-trichlorobenzylidene)hydrazine-1-carboximidamide] | No |  | 
15 | [H]/N=C(\N)NN=Cc1ccc(Cl)c(Cl)c1 [Compound 11, (E)-2-(3,4-dichlorobenzylidene)hydrazine-1-carboximidamide] |  | R15AB | 
16 | [H]/N=C(\N)NN=Cc1cc(F)ccc1Cl [Compound 20, (E)-2-(2-chloro-5-fluorobenzylidene)hydrazine-1-carboximidamide] |  | R15AB | 
17 | [H]/N=C(\N)NN=Cc1cccnc1Cl [Compound 21, (E)-2-((2-chloropyridin-3-yl)methylene)hydrazine-1-carboximidamide] | Transient |  | 
18 | [H]/N=C(\N)NN=Cc1ccc(F)c(Cl)c1Cl [Compound 14, (E)-2-(2,3-dichloro-4-fluorobenzylidene)hydrazine-1-carboximidamide] | Persistent |  | 
19 | [H]/N=C(\N)NN=Cc1cccc(Cl)c1 [Compound 24, (E)-2-(3-chlorobenzylidene)hydrazine-1-carboximidamide] |  | R15AB | 
20 | [H]/N=C(\N)NN=Cc1cc(Cl)cc(Cl)c1 [Compound 34, (E)-2-(3,5-dichlorobenzylidene)hydrazine-1-carboximidamide] |  | R15AB | 
21 | [H]/N=C(\N)NN=Cc1cc(F)c(Cl)cc1Cl [Compound 7, (E)-2-(2,4-dichloro-5-fluorobenzylidene)hydrazine-1-carboximidamide] |  | R15AB | 
